Patent US6323196A, “Galanthamine derivatives as acetylcholinesterase inhibitors” (priority 1993, dated 2001)
Counter-ions that a name gives are not always drawn. Like-named read-outs stand apart in the source and are kept apart here.

Tests used:
acetylcholinesterase = acetylcholinesterase (Homo sapiens, UniProt P22303); assay: Acetylcholinesterase Inhibition Assay (photometric method); assay type: biochemical
mice = assay type: in vivo; conditions: SDDA; dose 0.003 mg/kg, s.c.; retest after 24 hours
Procedure: This utility can also be ascertained by determining the ability of these compounds to restore cholinergically deficient memory in the Dark Avoidance Assay. In this assay mice are tested for their ability to remember an unpleasant stimulus for a period of 24 hours. A mouse is placed in a chamber that contains a dark compartment; a strong incandescent light drives it to the dark compartment, where arn electric shock is administered through metal plates on the floor. The animal is removed from the testing apparatus and tested again, 24 hours later, for the ability to remember the electric shock.
If scopolamine, an anticholinergic that is known to cause memory impairment, is administered before an animal's initial exposure to the test chamber, the animal re-enters the dark compartment shortly after being placed in the test chamber 24 hours later. This effect of scopolamine is blocked by an active test compounds, resulting in a greater interval before re-entry into the dark compartment.
The test results are expressed as the percent of a group of animals in which the effect of scopolanine is blocked, as manifested by an increased interval between being placed in the test chamber and re-entering the dark compartment. Results of Dark Avoidance Assay for some of the compounds of this invention are presented in Table II along with a result for a reference compounds.

acetylcholinesterase, sequence (P22303 32-614): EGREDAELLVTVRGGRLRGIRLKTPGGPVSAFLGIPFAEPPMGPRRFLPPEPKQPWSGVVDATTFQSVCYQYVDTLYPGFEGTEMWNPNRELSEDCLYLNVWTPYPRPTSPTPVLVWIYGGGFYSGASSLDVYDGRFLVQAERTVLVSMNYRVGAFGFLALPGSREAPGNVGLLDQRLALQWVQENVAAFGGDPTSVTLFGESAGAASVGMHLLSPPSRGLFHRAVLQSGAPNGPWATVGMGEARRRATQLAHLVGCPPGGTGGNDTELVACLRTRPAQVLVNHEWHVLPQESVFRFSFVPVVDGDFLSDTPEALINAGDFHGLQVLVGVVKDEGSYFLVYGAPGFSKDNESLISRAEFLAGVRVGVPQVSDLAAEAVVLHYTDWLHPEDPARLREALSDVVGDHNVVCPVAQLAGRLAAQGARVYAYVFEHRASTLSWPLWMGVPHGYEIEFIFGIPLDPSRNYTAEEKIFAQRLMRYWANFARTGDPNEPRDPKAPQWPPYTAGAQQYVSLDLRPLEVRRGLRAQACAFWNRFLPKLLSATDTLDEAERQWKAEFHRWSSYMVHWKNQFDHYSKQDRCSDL

Row | SMILES | IC50 (acetylcholinesterase) [nM] | IC50 (acetylcholinesterase; photometric method, read-out: IC50 CHE I (acetylcholinesterase inhibition)) [nM] | Percent of Animals with Scopolamine Induced Memory Deficit Reversal (mice) [%]
1 | CNC(=O)Oc1ccc2c3c1O[C@H]1C[C@@H](OC(=O)C(C)C)C=C[C@@]31CCN(C)C2 [6-O-Demethy-6-O-(methylaminocarbonyl)-3-O-(propan-2-yl-carbonyl)galanthamine Hydrochloride] | 47 |  | 
2 | CNC(=O)Oc1ccc2c3c1O[C@H]1C[C@@H](O)C=C[C@@]31CCN(C)C2 [6-O-Demethyl-6-O-(methylaminocarbonyl)galanthamine] |  | 2 | 27
